Test results published in US10590128B2, “6,7,8,9-tetrahydro-5H-pyrido[2,3-d]azepine dopamine D3 ligands” (Pfizer Inc., priority 2016, dated 2020).

Tests used:
[1] = biological target: human dopamine D2 receptor (hD2R) (Homo sapiens, UniProt P14416); experiment: Human D2 receptor binding assay ([^3H]-Spiperone); settings: CHO cells expressing hD2R, geometric mean of 2-5 determinations unless marked b (single determination)
Experimental: (§1) Human D2 Receptor and Human D3 Receptor Binding Assays:
(§2) These determined ligand and tissue concentrations were utilized in time course studies to determine linearity and equilibrium conditions for binding. […] The hD2R assay buffer contains 50 mM Tris (pH 7.4 @ 37° C.), 100 mM NaCl and 1 mM MgCl2. The hD3R assay buffer consists of 50 mM Tris (pH 7.4 at 37° C.), 120 mM NaCl, 5 mM MgCl2, 5 mM KCl and 2 mM CaCl2. Competitive binding experiments were initiated by the addition of 200 μL of the respective cell homogenate to 96-well plates containing […] test drugs (10 concentrations using ½ log dilutions) and 50 μL of ^3H-radioligand for a final volume of 250 μL. Non-specific binding was determined by radioligand binding in the presence of a saturating concentration of Haldol (10 μM). After the 20 minute incubation at 37° C., assay samples were rapidly filtered through Unifilter-96 GF/B PEI-coated filter plates and rinsed with ice-cold 50 mM Tris buffer (pH 7.4 at 4° C.). […] The IC50 value (concentration at which 50% inhibition of specific binding occurs) was calculated by linear regression of the concentration-response data in ActivityBase. Ki values were then calculated according to the Cheng-Prusoff equation:
(§3) [formula] where [L]=concentration of free radioligand and Kd=dissociation constant of radioligand for D3 receptor or D2 receptor.

[2] = biological target: human dopamine D3 receptor (hD3R) (Homo sapiens, UniProt P35462); experiment: Human D3 receptor binding assay ([^3H]-7-OH-DPAT); settings: CHO cells expressing hD3R, geometric mean of 2-5 determinations unless marked b (single determination), read-out: hD3 in CHO cells Ki
Experimental: as §1, §2, §3

Chain of human dopamine D3 receptor (hD3R) (P35462 whole entry): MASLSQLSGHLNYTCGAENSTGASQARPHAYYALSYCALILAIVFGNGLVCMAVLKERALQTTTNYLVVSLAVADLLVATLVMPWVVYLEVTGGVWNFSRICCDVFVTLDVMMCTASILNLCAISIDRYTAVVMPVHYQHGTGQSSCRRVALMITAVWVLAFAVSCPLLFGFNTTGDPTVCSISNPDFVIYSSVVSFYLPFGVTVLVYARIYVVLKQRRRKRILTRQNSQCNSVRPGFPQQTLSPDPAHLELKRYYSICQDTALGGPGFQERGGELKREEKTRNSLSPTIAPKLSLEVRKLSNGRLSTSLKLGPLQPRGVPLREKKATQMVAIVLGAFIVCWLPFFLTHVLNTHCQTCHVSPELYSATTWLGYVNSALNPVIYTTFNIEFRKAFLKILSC
Chain of human dopamine D2 receptor (hD2R) (P14416 whole entry): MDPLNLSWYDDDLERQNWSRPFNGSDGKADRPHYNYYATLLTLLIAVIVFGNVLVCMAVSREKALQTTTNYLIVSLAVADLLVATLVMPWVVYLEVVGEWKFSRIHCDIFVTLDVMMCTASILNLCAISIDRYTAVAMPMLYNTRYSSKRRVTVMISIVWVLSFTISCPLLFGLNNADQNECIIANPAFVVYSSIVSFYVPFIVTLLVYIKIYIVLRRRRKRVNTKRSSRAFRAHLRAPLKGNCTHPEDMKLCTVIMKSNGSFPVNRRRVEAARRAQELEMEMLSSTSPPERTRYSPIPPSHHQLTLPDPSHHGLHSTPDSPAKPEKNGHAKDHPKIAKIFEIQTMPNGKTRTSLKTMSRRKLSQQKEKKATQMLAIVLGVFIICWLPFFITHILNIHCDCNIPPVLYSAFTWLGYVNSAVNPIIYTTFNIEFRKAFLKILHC

Row | Structure (SMILES) | Ki [1] | Ki [2]
1 | CCN1CCc2cc(NS(=O)(=O)c3ccc(C4CCCCC4)nc3)c(OC)nc2CC1 [Example 114, 6-cyclohexyl-N-(7-ethyl-2-methoxy-6,7,8,9-tetrahydro-5H-pyrido[2,3-d]azepin-3-yl)pyridine-3-sulfonamide] | 146 nM | 3.15 nM
2 | COc1nc2c(cc1NS(=O)(=O)c1ccc(Cl)cc1)CCN(C)CC2 [Example 27, 4-chloro-N-(2-methoxy-7-methyl-6,7,8,9-tetrahydro-5H-pyrido[2,3-d]azepin-3-yl)benzenesulfonamide] | 400 nM | 3.26 nM
3 | COc1nc2c(cc1NS(=O)(=O)c1ccc(CC3CCCC3)nc1)CCN(C)CC2 [Example 131, 6-(cyclopentylmethyl)-N-(2-methoxy-7-methyl-6,7,8,9-tetrahydro-5H-pyrido[2,3-d]azepin-3-yl)pyridine-3-sulfonamide] | 36.1 nM | 2.3 nM
4 | COc1nc2c(cc1NS(=O)(=O)c1ccc(C3CCOCC3)cc1)CCN(C)CC2 [Example 4, N-(2-Methoxy-7-methyl-6,7,8,9-tetrahydro-5H-pyrido[2,3-d]azepin-3-yl)-4-(tetrahydro-2H-pyran-4-yl)benzenesulfonamide] | 104 nM | 1.53 nM
5 | COc1nc2c(cc1NS(=O)(=O)c1ccc(O[C@H]3CCOC3)cc1)CCN(C)CC2 [Example 91, N-(2-methoxy-7-methyl-6,7,8,9-tetrahydro-5H-pyrido[2,3-d]azepin-3-yl)-4-[(3S)-tetrahydrofuran-3-yloxy]benzenesulfonamide] | 208 nM | 3.37 nM
6 | COc1nc2c(cc1NS(=O)(=O)c1ccc3c(c1)CC(C)(C)O3)CCN(C)CC2 [Example 34, N-(2-methoxy-7-methyl-6,7,8,9-tetrahydro-5H-pyrido[2,3-d]azepin-3-yl)-2,2-dimethyl-2,3-dihydro-1-benzofuran-5-sulfonamide] | 26.3 nM | 0.65 nM
7 | COc1nc2c(cc1NS(=O)(=O)c1ccc([C@H]3CC[C@@H](OC)CC3)cc1)CCN(C)CC2 [Example 92, 4-(cis-4-methoxycyclohexyl)-N-(2-methoxy-7-methyl-6,7,8,9-tetrahydro-5H-pyrido[2,3-d]azepin-3-yl)benzenesulfonamide] | 600 nM | 5.53 nM
8 | COc1nc2c(cc1NS(=O)(=O)c1ccc(OC3CCCC3)cc1)CCN(C)CC2 [Example 46, 4-(cyclopentyloxy)-N-(2-methoxy-7-methyl-6,7,8,9-tetrahydro-5H-pyrido[2,3-d]azepin-3-yl)benzenesulfonamide] | 3.21 nM | 0.48 nM
9 | COc1nc2c(cc1NS(=O)(=O)c1ccc([C@H]3C[C@H](OC)C3)cc1)CCN(C)CC2 [Example 76, 4-(trans-3-methoxycyclobutyl)-N-(2-methoxy-7-methyl-6,7,8,9-tetrahydro-5H-pyrido[2,3-d]azepin-3-yl)benzenesulfonamide] | 203 nM | 1.28 nM
10 | COc1nc2c(cc1NS(=O)(=O)c1ccc(C3(F)CCC(OC)CC3)cc1)CCN(C)CC2 (single isomer, unassigned) [Example 39, 4-(cis-1-fluoro-4-methoxycyclohexyl)-N-(2-methoxy-7-methyl-6,7,8,9-tetrahydro-5H-pyrido[2,3-d]azepin-3-yl)benzenesulfonamide] | 561 nM | 1.95 nM
11 | CCOC1CC(c2ccc(S(=O)(=O)Nc3cc4c(nc3OC)CCN(CC)CC4)cc2)C1 (stereo not drawn) [Example 121, 4-(trans-3-ethoxycycyclobutyl)-N-(7-ethyl-2-methoxy-6,7,8,9-tetrahydro-5H-pyrido[2,3-d]azepin-3-yl)benzenesulfonamide] | 39.8 nM | 2.53 nM
12 | COc1nc2c(cc1NS(=O)(=O)c1ccc(C3COC3)cc1)CCN(C)CC2 [Example 33, N-(2-methoxy-7-methyl-6,7,8,9-tetrahydro-5H-pyrido[2,3-d]azepin-3-yl)-4-(oxetan-3-yl)benzenesulfonamide] | – | 3.68 nM
